Reference: patent US8476298B2 (Exelixis, Inc., priority 2003, dated 2013)
pIC50: −log10 of the molar value. Where two headings read alike, the source gives them in different places.

Key:
c-Kit kinase = c-Kit kinase (Homo sapiens, UniProt P10721); assay: c-Kit AlphaScreen kinase assay; type: biochemical;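 further: c-Kit kinase phosphorylating biotinylated poly(Glu,Tyr), ATP near its KM, 1 h reaction at ambient temperature, AlphaScreen chemiluminescence with streptavidin donor and anti-phosphotyrosine acceptor beads, 10-point inhibitor titration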
Sequence of c-Kit kinase (P10721 26-976): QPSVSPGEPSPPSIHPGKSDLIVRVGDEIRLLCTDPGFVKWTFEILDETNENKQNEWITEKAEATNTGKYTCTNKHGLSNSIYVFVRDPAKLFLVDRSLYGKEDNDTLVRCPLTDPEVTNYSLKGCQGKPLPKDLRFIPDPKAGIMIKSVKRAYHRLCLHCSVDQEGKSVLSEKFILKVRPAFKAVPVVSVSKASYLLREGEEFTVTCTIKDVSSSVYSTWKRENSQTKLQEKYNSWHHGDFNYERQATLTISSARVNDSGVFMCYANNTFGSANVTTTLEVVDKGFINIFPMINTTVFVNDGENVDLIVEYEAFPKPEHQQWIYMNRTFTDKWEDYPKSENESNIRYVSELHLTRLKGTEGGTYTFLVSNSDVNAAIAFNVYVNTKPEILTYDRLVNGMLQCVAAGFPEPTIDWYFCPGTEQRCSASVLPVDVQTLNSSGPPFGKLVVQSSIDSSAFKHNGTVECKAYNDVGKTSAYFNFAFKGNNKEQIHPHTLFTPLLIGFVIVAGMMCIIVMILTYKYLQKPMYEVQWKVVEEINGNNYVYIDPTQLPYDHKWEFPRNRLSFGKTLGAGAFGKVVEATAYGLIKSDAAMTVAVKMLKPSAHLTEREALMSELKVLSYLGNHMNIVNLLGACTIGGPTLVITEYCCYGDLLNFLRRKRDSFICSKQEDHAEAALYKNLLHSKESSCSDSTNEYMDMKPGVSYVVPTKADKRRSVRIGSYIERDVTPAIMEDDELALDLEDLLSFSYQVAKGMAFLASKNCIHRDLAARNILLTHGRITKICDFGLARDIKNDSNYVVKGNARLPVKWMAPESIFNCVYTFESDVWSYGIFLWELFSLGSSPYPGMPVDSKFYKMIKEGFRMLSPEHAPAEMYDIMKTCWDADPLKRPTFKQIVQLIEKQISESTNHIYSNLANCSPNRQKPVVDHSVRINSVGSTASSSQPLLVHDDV

[1] = molecular target: T1, c-Met (baculovirus expressed human c-Met kinase domain P948-S1343) (Homo sapiens, UniProt P08581); assay: c-Met Luciferase-Coupled Chemiluminescent Kinase assay (LCCA); type: biochemical;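 further: kinase activity read as percent ATP left after reaction, by luciferase-luciferin chemiluminescence, with 1 µM ATP and 1 µM poly-EY substrate, 2 h at ambient temperature, 10-point dose-response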
T1 construct: human c-Met kinase domain P948-S1343; host or cells: baculovirus expression
T1 sequence (P08581 1011-1343 limits assumed): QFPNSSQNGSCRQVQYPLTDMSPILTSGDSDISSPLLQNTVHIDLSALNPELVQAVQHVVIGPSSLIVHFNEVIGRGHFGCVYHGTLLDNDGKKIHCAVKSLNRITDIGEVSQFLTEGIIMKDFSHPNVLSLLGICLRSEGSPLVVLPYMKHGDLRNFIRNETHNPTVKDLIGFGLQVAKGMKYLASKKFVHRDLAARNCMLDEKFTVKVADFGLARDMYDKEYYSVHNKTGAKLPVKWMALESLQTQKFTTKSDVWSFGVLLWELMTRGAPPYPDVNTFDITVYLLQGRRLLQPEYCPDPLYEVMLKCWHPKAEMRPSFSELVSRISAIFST

[2] = molecular target: T2, Flt-3 (baculovirus expressed human Flt-3 kinase domain R571-S993) (Homo sapiens, UniProt P36888); assay: biochemical; details: read-out: flt3 IC50;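 further: Luciferase-coupled chemiluminescent kinase assay, activity read as percent ATP left after a 3 h reaction at room temperature, ATP near KM, 10-point dose-response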
T2 construct: human Flt-3 kinase domain R571-S993; host or cells: baculovirus expression
T2 sequence (P36888 571-993): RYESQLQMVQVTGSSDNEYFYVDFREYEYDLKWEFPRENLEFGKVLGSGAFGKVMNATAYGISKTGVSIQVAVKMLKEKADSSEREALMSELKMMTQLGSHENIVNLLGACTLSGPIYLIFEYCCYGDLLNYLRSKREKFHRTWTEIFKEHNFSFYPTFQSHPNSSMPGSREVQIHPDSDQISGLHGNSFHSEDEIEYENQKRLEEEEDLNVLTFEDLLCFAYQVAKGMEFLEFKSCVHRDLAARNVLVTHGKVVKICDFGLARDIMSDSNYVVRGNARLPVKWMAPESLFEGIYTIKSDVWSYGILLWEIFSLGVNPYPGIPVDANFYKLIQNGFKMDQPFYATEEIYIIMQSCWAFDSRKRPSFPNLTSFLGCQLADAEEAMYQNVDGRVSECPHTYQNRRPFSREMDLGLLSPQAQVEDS
Description: Kinase activity and compound inhibition are investigated using one or more of the three assay formats described below. The ATP concentrations for each assay are selected to be close to the Michaelis-Menten constant (KM) for each individual kinase. Dose-response experiments are performed at 10 different inhibitor concentrations in a 384-well plate format.
Biochemical activity for flt-3 was assessed using a Luciferase-Coupled Chemiluminescent Kinase assay (LCCA) format. Kinase activity was measured as the percent ATP remaining following the kinase reaction. Remaining ATP was detected by luciferase-luciferin-coupled chemiluminescence. […] The mixture is incubated at ambient temperature for 3 hours after which 20 uL luciferase-luciferin mix is added and the chemiluminescent signal read using a Wallac Victor^2 reader.

[3] = molecular target: T3, KDR (baculovirus expressed human KDR kinase domain D807-V1356) (Homo sapiens, UniProt P35968); assay: biochemical;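 further: Luciferase-coupled chemiluminescent kinase assay, activity read as percent ATP left after 4 h reaction at ambient temperature, ATP near KM, 10-point dose-response in 384-well plates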
T3 construct: human KDR kinase domain D807-V1356; host or cells: baculovirus expression
T3 sequence (P35968 807-1356): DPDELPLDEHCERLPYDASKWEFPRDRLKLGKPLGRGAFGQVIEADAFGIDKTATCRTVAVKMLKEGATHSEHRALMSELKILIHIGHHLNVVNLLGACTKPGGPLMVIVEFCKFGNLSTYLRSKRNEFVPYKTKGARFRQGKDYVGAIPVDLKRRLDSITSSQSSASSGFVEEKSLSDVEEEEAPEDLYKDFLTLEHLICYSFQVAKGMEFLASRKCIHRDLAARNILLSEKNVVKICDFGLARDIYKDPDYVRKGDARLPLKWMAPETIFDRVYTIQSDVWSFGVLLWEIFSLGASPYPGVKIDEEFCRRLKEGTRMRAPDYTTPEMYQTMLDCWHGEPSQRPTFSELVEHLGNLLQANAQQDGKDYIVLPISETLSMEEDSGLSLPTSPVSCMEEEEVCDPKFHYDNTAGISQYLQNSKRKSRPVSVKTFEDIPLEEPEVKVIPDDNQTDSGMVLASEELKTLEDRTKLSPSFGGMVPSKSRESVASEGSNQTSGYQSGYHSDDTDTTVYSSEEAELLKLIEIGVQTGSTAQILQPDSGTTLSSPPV

[4] = Table 4, inhibition as IC50 class

Row | SMILES | pIC50 [1] | pIC50 [2] | pIC50 [3] | further results
1 | COc1cc2nccc(Oc3ccc(NC(=O)C(=O)NCc4ccccc4)cc3F)c2cc1OC [Entry 12] | – | – | – | pIC50 (c-Kit kinase): 6.30 to 7.30
2 | COc1cc2nccc(Oc3ccc(NC(=O)C(=O)NCCC4CCCN4C)cc3F)c2cc1OC (stereo not drawn) [Entry 72] | 5.30 to 6.30 | 5.30 to 6.30 | – | pIC50 (c-Kit kinase): 5.30 to 6.30
3 | COc1cc2c(Oc3ccc(NC(=O)C(=O)NCCc4cccc(Cl)c4)cc3F)ccnc2cc1OCC1CCNCC1 [Example 149, N-[2-(3-Chloro-phenyl)-ethyl]-N′-{3-fluoro-4-[6-methoxy-7-{piperidin-4-ylmethoxy)-quinolin-4-yloxy]-phenyl}-oxalamide] | – | – | – | pIC50 (c-Kit kinase): > 7.30
4 | CCOc1ccc(CCNC(=O)C(=O)Nc2ccc(Oc3ccnc4cc(OCC5CCNCC5)c(OC)cc34)c(F)c2)cc1 [Example 167, N-[2-(4-Ethoxy-phenyl)-ethyl]-N′-{3-fluoro-4-[6-methoxy-7-(piperidin-4-ylmethoxy)-quinolin-4-yloxy]-phenyl}-oxalamide] | – | – | – | pIC50 (c-Kit kinase; [4]): 6.30 to 7.30
5 | COc1cc2c(Oc3ccc(NC(=O)C(=O)NC4CCc5ccccc54)cc3F)ccnc2cc1OCC1CCNCC1 (stereo not drawn) [Example 177, N-{3-Fluoro-4-[6-methoxy-7-(piperidin-4-ylmethoxy)-quinolin-4-yloxy]-phenyl}-N′-indan-1-yl-oxalamide] | – | – | – | pIC50 (c-Kit kinase; [4]): > 7.30
6 | COc1cc2c(Oc3ccc(NC(=O)C(=O)N[C@@H](C)c4ccccc4)cc3F)ccnc2cc1OCC1CCNCC1 [Example 184, N-{3-Fluoro-4-[6-methoxy-7-(piperidin-4-ylmethoxy)-quinolin-4-yloxy]-phenyl}-N′-(1S-phenyl-ethyl)-oxalamide] | – | – | – | pIC50 (c-Kit kinase; [4]): > 7.30
7 | COc1cc2c(Oc3ccc(NC(=O)C(=O)NCCc4ccc(Cl)c(Cl)c4)cc3F)ccnc2cc1OCC1CCNCC1 [Example 223, N-[2-(3,4-dichlorophenyl)ethyl]-N′-[3-fluoro-4-({6-(methyloxy)-7-[(piperidin-4-ylmethyl)oxy]quinolin-4-yl}oxy)phenyl]ethanediamide] | – | – | – | pIC50 [3, 4]: > 7.30; pIC50 [1, 4]: > 7.30; pIC50 [2, 4]: > 7.30; pIC50 (c-Kit kinase; [4]): > 7.30
8 | COc1cc2c(Oc3ccc(NC(=O)[C@]4(C(=O)Nc5ccc(F)cc5)C[C@H]4C)cc3F)ncnc2cc1OCCCN1CCN(C)CC1 [Example 387, (1R,2R)-N-{3-fluoro-4-[(6-(methyloxy)-7-{[3-(4-methylpiperazin-1-yl)propyl]oxy}quinazolin-4-yl)oxy]phenyl}-N′-(4-fluorophenyl)-2-methylcyclopropane-1,1-dicarboxamide] | > 7.30 | > 7.30 | > 7.30 | –
9 | CCN(CC)CCOc1cc2ncnc(Oc3ccc(NC(=O)C4(C(=O)Nc5ccc(F)cc5)[C@H](C)[C@H]4C)cc3F)c2cc1OC (stereo partly drawn) [Example 388, (2R,3R)-N-(4-{[7-{[2-(diethylamino)ethyl]oxy}-6-(methyloxy)quinazolin-4-yl]oxy}-3-fluorophenyl)-N′-(4-fluorophenyl)-2,3-dimethylcyclopropane-1,1-dicarboxamide] | 6.30 to 7.30 | 5.30 to 6.30 | > 7.30 | –
10 | CCN(CC)CCCOc1cc2ncnc(Oc3ccc(NC(=O)C4(C(=O)Nc5ccc(F)cc5)[C@H](C)[C@H]4C)cc3F)c2cc1OC (stereo partly drawn) [Example 389, (2R,3R)-N-(4-{[7-{[3-(diethylamino)propyl]oxy}-6-(methyloxy)quinazolin-4-yl]oxy}-3-fluorophenyl)-N′-(4-fluorophenyl)-2,3-dimethylcyclopropane-1,1-dicarboxamide] | > 7.30 | 6.30 to 7.30 | > 7.30 | –
11 | COc1cc2c(Oc3ccc(NC(=O)[C@]4(C(=O)Nc5ccc(F)cc5)C[C@H]4C)cc3F)ncnc2cc1OCCCN1CCNCC1 [Example 390, (1R,2R)-N-[3-fluoro-4-({6-(methyloxy)-7-[(3-piperazin-1-ylpropyl)oxy]quinazolin-4-yl}oxy)phenyl]-N′-(4-fluorophenyl)-2-methylcyclopropane-1,1-dicarboxamide] | > 7.30 | > 7.30 | > 7.30 | –
12 | CCN(CC)CCOc1cc2nccc(Oc3ccc(NC(=O)C4(C(=O)Nc5ccc(F)cc5)[C@H](C)[C@H]4C)cc3F)c2cc1OC (stereo partly drawn) [Example 391, (2R,3R)-N-(4-{[7-{[2-(diethylamino)ethyl]oxy}-6-(methyloxy)quinolin-4-yl]oxy}-3-fluorophenyl)-N′-(4-fluorophenyl)-2,3-dimethylcyclopropane-1,1-dicarboxamide] | > 7.30 | 6.30 to 7.30 | > 7.30 | –
13 | COc1cc2nccc(Oc3ccc(NC(=O)C4(C(=O)NCc5ccc(F)cc5)CC4)cc3)c2cc1OC [Example 392, N-(4-{[6,7-bis(methyloxy)quinolin-4-yl]oxy}phenyl)-N′-[(4-fluorophenyl)methyl]cyclopropane-1,1-dicarboxamide] | 6.30 to 7.30 | > 7.30 | 6.30 to 7.30 | –
14 | COc1cc2nccc(Oc3ccc(NC(=O)C4(C(=O)NCCN5CCOCC5)CC4)cc3)c2cc1OC [Example 393, N-(4-{[6,7-bis(methyloxy)quinolin-4-yl]oxy}phenyl)-N′-(2-morpholin-4-ylethyl)cyclopropane-1,1-dicarboxamide] | 5.30 to 6.30 | 6.30 to 7.30 | < 5.30 | –
15 | COc1cc2nccc(Oc3ccc(NC(=O)C4(C(=O)Nc5ccccc5CN5CCCCC5)CC4)cc3)c2cc1OC [Example 394, N-(4-{[6,7-bis(methyloxy)quinolin-4-yl]oxy}phenyl)-N′-[2-(piperidin-1-ylmethyl)phenyl]cyclopropane-1,1-dicarboxamide] | 6.30 to 7.30 | 6.30 to 7.30 | < 5.30 | –
16 | COc1cc2nccc(Oc3ccc(NC(=O)C4(C(=O)Nc5ccccc5CN5CCCC5)CC4)cc3)c2cc1OC [Example 395, N-(4-{[6,7-bis(methyloxy)quinolin-4-yl]oxy}phenyl)-N′-[2-(pyrrolidin-1-ylmethyl)phenyl]cyclopropane-1,1-dicarboxamide] | 6.30 to 7.30 | 6.30 to 7.30 | 5.30 to 6.30 | –
17 | COc1cc2nccc(Oc3ccc(NC(=O)C4(C(=O)Nc5cccc(CN6CCOCC6)c5)CC4)cc3)c2cc1OC [Example 396, N-(4-{[6,7-bis(methyloxy)quinolin-4-yl]oxy}phenyl)-N′-[3-(morpholin-4-ylmethyl)phenyl]cyclopropane-1,1-dicarboxamide] | 6.30 to 7.30 | > 7.30 | > 7.30 | –
18 | COc1cc2nccc(Oc3ccc(NC(=O)C4(C(=O)Nc5ccccc5CN5CCOCC5)CC4)cc3)c2cc1OC [Example 397, N-(4-{[6,7-bis(methyloxy)quinolin-4-yl]oxy}phenyl)-N′-[2-(morpholin-4-ylmethyl)phenyl]cyclopropane-1,1-dicarboxamide] | 6.30 to 7.30 | 6.30 to 7.30 | 5.30 to 6.30 | –
19 | COc1cc2nccc(Oc3ccc(NC(=O)C4(C(=O)Nc5ccccc5)CC4)cc3)c2cc1OC [Example 398, N-(4-{[6,7-bis(methyloxy)quinolin-4-yl]oxy}phenyl)-N′-phenylcyclopropane-1,1-dicarboxamide] | > 7.30 | > 7.30 | > 7.30 | –
20 | COc1cc2nccc(Oc3ccc(NC(=O)C4(C(=O)Nc5cccc(CN)c5)CC4)cc3)c2cc1OC [Example 399, N-[3-(aminomethyl)phenyl]-N′-(4-{[6,7-bis(methyloxy)quinolin-4-yl]oxy}phenyl)cyclopropane-1,1-dicarboxamide] | 6.30 to 7.30 | 6.30 to 7.30 | > 7.30 | –
